Reference: the supplement of paper PMC10307832

Legend:
Assay in all cases: relative viability (nuclei count vs DMSO), 5 days (fraction); higher = more cells survive
CX-5461 + AZD7762 = compound: Cc1cnc(CNC(=O)c2c(=O)c3ccc(N4CCCN(C)CC4)nc3n3c2sc2ccccc23)cn1 [CX-5461] + NC(=O)Nc1cc(-c2cccc(F)c2)sc1C(=O)N[C@H]1CCCNC1 [AZD7762] (partner 0.2 µM)
How it was run: (§1)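 Cells from lung cancer lines were seeded into 1536-well plates and, one day later, dosed by pin tool. Treatments were either a single drug or a fixed dose of an anchor drug with five library-drug doses (not always all listed) in √10 steps. After 5 days, nuclei were stained in a one-step fixation (final 0.05% Triton X-100, 1% formaldehyde, 1 ug/ml Hoechst) and counted on 4× images, and relative viability is the treated-to-vehicle nuclei ratio, as the median of duplicate plates.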

CX-5461 + Pemetrexed = compound: Cc1cnc(CNC(=O)c2c(=O)c3ccc(N4CCCN(C)CC4)nc3n3c2sc2ccccc23)cn1 [CX-5461] + Nc1nc2[nH]cc(CCc3ccc(C(=O)N[C@@H](CCC(=O)O)C(=O)O)cc3)c2c(=O)[nH]1 [Pemetrexed] (partner 0.2 µM)
How it was run: as §1

IMD-0354 + Phenformin = compound: O=C(Nc1cc(C(F)(F)F)cc(C(F)(F)F)c1)c1cc(Cl)ccc1O [IMD-0354] + N=C(N)NC(=N)NCCc1ccccc1 [Phenformin] (partner 250 µM)
How it was run: as §1

CX-5461 + Tozasertib = compound: Cc1cnc(CNC(=O)c2c(=O)c3ccc(N4CCCN(C)CC4)nc3n3c2sc2ccccc23)cn1 [CX-5461] + Cc1cc(Nc2cc(N3CCN(C)CC3)nc(Sc3ccc(NC(=O)C4CC4)cc3)n2)n[nH]1 [Tozasertib] (partner 0.1 µM)
How it was run: as §1

Cell Line | relative viability (CX-5461 + AZD7762; first compound 0.01 µM) | relative viability (CX-5461 + AZD7762; first compound 0.03162 µM) | relative viability (CX-5461 + AZD7762; first compound 0.1 µM) | relative viability (CX-5461 + AZD7762; first compound 0.3162 µM) | relative viability (CX-5461 + AZD7762; first compound 1 µM) | relative viability (CX-5461 + Pemetrexed; first compound 0.01 µM) | relative viability (CX-5461 + Pemetrexed; first compound 0.03162 µM) | relative viability (CX-5461 + Pemetrexed; first compound 0.1 µM) | relative viability (CX-5461 + Pemetrexed; first compound 0.3162 µM) | relative viability (CX-5461 + Pemetrexed; first compound 1 µM) | relative viability (IMD-0354 + Phenformin; first compound 0.04 µM) | relative viability (IMD-0354 + Phenformin; first compound 0.1265 µM) | relative viability (IMD-0354 + Phenformin; first compound 0.4 µM) | relative viability (IMD-0354 + Phenformin; first compound 1.265 µM) | relative viability (IMD-0354 + Phenformin; first compound 4 µM) | relative viability (CX-5461 + Tozasertib; first compound 0.01 µM) | relative viability (CX-5461 + Tozasertib; first compound 0.03162 µM) | relative viability (CX-5461 + Tozasertib; first compound 0.1 µM) | relative viability (CX-5461 + Tozasertib; first compound 0.3162 µM) | relative viability (CX-5461 + Tozasertib; first compound 1 µM)
NCI-H3122 | 1.06 | 0.946 | 0.936 | 1.03 | 0.607 | 0.201 | 0.196 | 0.2 | 0.206 | 0.18 | 0.401 | 0.339 | 0.136 | 0.064 | 0.0975 | 0.389 | 0.537 | 0.352 | 0.314 | 0.262
PC-3 [JPC-3] | 0.803 | – | 0.822 | 0.865 | 0.759 | 1.18 | – | 1.11 | 1.15 | 0.86 | 0.508 | 0.449 | 0.459 | 0.264 | 0.291 | 0.899 | 0.947 | 0.851 | 0.792 | 0.847
PC-14 | 0.393 | 0.455 | 0.351 | 0.407 | 0.227 | 0.134 | 0.134 | 0.118 | 0.157 | 0.113 | 0.817 | 0.59 | 0.221 | 0.107 | 0.112 | 0.71 | 0.642 | 0.618 | 0.293 | 0.492
RERF-LC-KJ | 1 | 0.897 | 0.954 | 0.807 | 0.901 | 0.508 | 0.465 | 0.442 | 0.403 | 0.434 | 0.478 | 0.423 | 0.337 | 0.289 | 0.207 | 0.449 | 0.516 | 0.287 | 0.509 | 0.245
SW 900 | 0.657 | 0.627 | – | 0.544 | 0.311 | 0.437 | 0.52 | – | 0.521 | 0.441 | 0.661 | 0.48 | 0.302 | 0.185 | 0.202 | 0.555 | 0.525 | 0.544 | 0.609 | 0.537
